Reference: US20100160209A1, “Composition and Method for Increasing Cell Permeability of a Compound” (SmithKline Beecham Corporation, priority 2006, published 2010)
Ends that are not written are not given here. Peptide text beside a SMILES is read from it. * marks the point of attachment. Boc = CC(C)(C)OC(=O)*; OSu = O=C1CCC(=O)N1O*

Key:
[1] = solubility in aqueous solutions; assay type: physicochemical; conditions: for CPS-Cys particularly in slightly acidic pH
Description: (§1) Initial synthesis was of the 11-mer CPS peptide in which its C-terminal end was an N-hydroxysuccinimide (NHS) ester. This CPS-OSu peptide was expected to be highly reactive to the amine groups of human insulin and thus facilitate the conjugation reactions between CPS and Insulin. […] As a result, this CPS-OSu activated ester was cyclized via an internal amide bond. To overcome this side-reaction, a derivative of the CPS-OSu peptide in which all three amine groups of this peptide were protected by a Boc group (tert-Butyloxycarbonyl) was also made.
(§2) The 12-mer CPS-Cys peptide Sequence of CPS-Cys Peptide: K-L-K-L-A-L-A-L-A-L-A-C (Seq ID no. 2) was synthesized by conventional solid-phase peptide synthesis methodology. Standard synthesis protocols based on Fmoc chemistry were used. After synthesis, the crude peptides were cleaved from the solid support and purified by C18 reverse-phase HPLC eluted with acetonitrile aqueous buffers. The purified peptide was characterized by analytical HPLC analysis (FIG. 2, top panel) and mass spectrometry analysis (FIG. 2a, bottom panel, calculated MW=1227.6 Da and measured MW (MH+)=1227.9 Da).

[2] = stability of the peptide; assay type: physicochemical; conditions: CPS-OSu: reacts with its own amine groups, cyclized via internal amide bond
Description: as §1, §2

[3] = test system: CCK-releasing cells; conditions: "is said to elicit"; assay of WO 01/41812; cited from earlier work

Compound	solubility in aqueous solutions [1]	stability of the peptide [2]	increase in CCK secretion [3] [%]
CC(C)C[C@H](NC(=O)[C@H](C)NC(=O)[C@H](CC(C)C)NC(=O)[C@H](CCCCNC(=O)OC(C)(C)C)NC(=O)[C@H](CC(C)C)NC(=O)[C@H](CCCCNC(=O)OC(C)(C)C)NC(=O)OC(C)(C)C)C(=O)N[C@@H](C)C(=O)N[C@@H](CC(C)C)C(=O)N[C@@H](C)C(=O)N[C@@H](CC(C)C)C(=O)N[C@@H](C)C(=O)ON1C(=O)CCC1=O [amine-protected peptide] (Boc-K(Boc)LK(Boc)LALALALA-OSu)	poor solubility		
KLKLALALALAC [CPS-Cys peptide, K-L-K-L-A-L-A-L-A-L-A-C]	good solubility	stable	
STFWAYQPDGDNDPTDYQKYEHTSSPSQLLAPGDYPCVIEV (listed as Homo sapiens) [Native LCRF, luminal cholecystokinin releasing factor]			~300
